# Results: patent publication US10947229B2, “Dimethyl amino azetidine amides as JAK inhibitors” (THERAVANCE BIOPHARMA R&D IP, LLC, priority 2018, dated 2021)
# Experiments:
# [1] = tested on: IL-12 stimulated STAT4 phosphorylation in CD3+ T cells; experiment: Cellular JAK potency assay: inhibition of IL-12-induced pSTAT4; assay type: cell-based; conditions: T-cell; CD3+ T cells from human whole blood; read-out: pIC50, inhibition of IL-12-induced pSTAT4 (converted)
# Experimental: The potency of test compounds for inhibition of interleukin-12 (IL-12) stimulated STAT4 phosphorylation was measured in CD3-positive (CD3+) T cells derived from human whole blood (Stanford Blood Center) using flow cytometry. Because IL-12 signals through JAK, this assay provides a measure of JAK cellular potency. CD3+ T cells were identified using a phycoerythrin (PE) conjugated anti-CD3 antibody (clone UCHT1, BD Biosciences), and an Alexa Fluor 647 conjugated anti-pSTAT4 antibody (clone 38/p-Stat4, BD Biosciences) was used to detect STAT4 phosphorylation. Human peripheral blood mononuclear cells (PBMC) were isolated from human whole blood of healthy donors using a ficoll gradient. […] After incubation, cells were washed twice in FACS buffer before being analyzed using a MACSQuant flow cytometer (Miltenyi). To determine the inhibitory potency of the test compound, the median fluorescent intensity (MFI) of pSTAT4 was measured in CD3+ T cells. IC50 values were determined from analysis of the inhibition curves of MFI vs compound concentration. Data are expressed as pIC50 (negative decadic logarithm IC50) values.
# Lung S9 metabolism = assay type: in vitro ADME, human
# Experimental: The time 0, 15, 30, and 60 minute samples were analyzed for parent compound by high resolution LC-MS/MS. Lung S9 fractions from human (lot 1410245) were purchased from XenoTech LLC (Lenexa, Kans.). NADPH (Sigma Aldrich, N1630) and 3-phosphoadenosine 5-phosphosulfate (PAPS) (Sigma Aldrich, A1651) were purchased from Sigma Aldrich (St. Louis, Mo.). Acetonitrile and water were obtained from VWR (Radnor, Pa.) and were of HPLC grade or better. Raloxifene and formic acid was purchased from Sigma Aldrich (St. Louis, Mo.). Lung S9 incubations were performed in a water bath at 37° C. in a 96-well polypropylene plate. […] Louis, Mo.), 3 mM magnesium chloride (Sigma Aldrich, M1028) and in the presence of 100 μM PAPS (Sigma-Aldrich, St. […] Incubation volumes consisted of 400 μL and time points were taken at 0, 15, 30, and 60 minutes by the removal of a 70 μL aliquot and dilution into 140 μL acetonitrile (0% formic acid). All samples were centrifuged at 2250 g for 10 minutes at 5° C. Supernatant […] was taken from the centrifuged samples and diluted into 100 μL HPLC water containing internal standard. The samples were run on a Dionex Ultimate 3000 Auto sampler and analyzed using a Thermo Q-Exactive High Resolution Mass Spectrometer (Thermo, Waltham, Mass.) in Full Scan mode in conjunction with an Atlantis T3 column 3 μM-2.1×50 mm (Waters Inc., 186003717). Mobile Phase A consisted of Water+0.2% formic acid and Mobile Phase B consisted of acetonitrile +0.2% formic acid. Peak integration was accomplished using Gubbs GMSU software (Gubbs Inc., Alpharetta, Ga.). For each sample, peak area ratios were calculated by dividing the analyte peak area by the internal standard peak area. For each incubation, the peak area ratios of the analytes in each t0 was set to 100%, and the peak areas ratios from the 60 minute samples were converted to percentages remaining relative to the corresponding t0. Determination of sulfate metabolite formation was made qualitatively by observation of early-eluting peak in the parent ion channel which, based on historical internal data, corresponded to the O-sulfate metabolite of each parent compound.
# [2] = tested on: spontaneous IL-6 secretion; experiment: Inhibition of spontaneous IL-6 secretion in human 3D airway cultures from asthmatic donors; assay type: cell-based; conditions: 192 h, 8 days, 3 or 4 donors
# Experimental: EpiAirway tissue cultures were obtained from Mattek (AIR-100). Cells were derived from asthmatic donors that spontaneously secrete periostin, a matricellular protein associated with Th2 mediated asthma (eosinophilic), and interleukin-6 (IL-6), an inflammatory cytokine that plays a role in both Th2 and non-Th2 related asthma. In a cell culture insert, human derived tracheal/bronchial epithelial cells were grown and differentiated on a porous membrane support, allowing an air-liquid interface with warmed culture medium below the cells and a gaseous test atmosphere above. Tissues were cultured in maintenance media ([…]) in a 37° C., 5% CO2 humidified incubator. Four donors were tested. On Day 0, tissue cultures were treated with test compounds in liquid interface at 10 μM, 1 μM and/or 0.1 μM. Compounds were diluted in dimethyl sulfoxide (DMSO, Sigma) to a final concentration of 0.1%. DMSO at 0.1% was used as a vehicle control. Tissue cultures were maintained for 8 days. Media was replaced every 2 days with fresh media containing compounds. On Day 8, supernatants were collected for analysis. Supernatant samples were assayed for periostin and interleukin-6 (IL-6) using luminex analysis (EMD Millipore). Data is expressed as % Inhibition+/-standard deviation (±STDV). Percent inhibition was determined by compound inhibitory potency against spontaneous secretion of periostin and IL-6 compared to vehicle treated cells. Data is the average from 3 or 4 donors.
smiles,measurement,setting,value
"CCc1cc(O)ccc1-c1ccc2c(-c3nc4c([nH]3)CN(C(C)C)[C@H](C(=O)N3CC(N(C)C)C3)C4)n[nH]c2c1 [Compound 1, (S)-(3-(dimethylamino)azetidin-1-yl)(2-(6-(2-ethyl-4-hydroxyphenyl)-1H-indazol-3-yl)-5-isopropyl-4,5,6,7-tetrahydro-3H-imidazo[4,5-c]pyridin-6-yl)methanone]",IC50,[1],1000 nM
same,Compound Remaining at 60 min (%),"Lung S9 metabolism; human lung S9, 1 μM compound, 1 mg/mL S9 protein, 60 min",81%
same,Sulfate Appearance,"Lung S9 metabolism; human lung S9, qualitative O-sulfate metabolite peak",Yes
same,microsomal CLint at 1 µM,"Lung S9 metabolism; human lung S9 fraction, pH 7.4, human lung S9, 1 μM compound, 1 mg/mL S9 protein, NADPH and PAPS, read-out: Clearance",3.5 µL/min/mg
same,inhibition at 0.1 µM,[2]; 0.1 μM,10%
same,inhibition at 1 µM,[2]; 1 μM,70%
same,inhibition at 10 µM,[2]; 10 μM,91%
